Data on 24 molecules can be found in patent US20230348369A1 (Cytokinetics, Inc., priority 2020, published 2023).

The target of the test is human NAMPT (Homo sapiens, UniProt P43490). The test is described as follows: Human recombinant enzyme assay (NMN fluorescence biochemical assay, activation of NAMPT). The gist of the method:
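NMN production is detected fluorometrically (Ex 355/Em 460 nm) 40 min after acetophenone, KOH and formic acid derivatization. Reactions ran 60 min at ambient temperature: 6 nM human NAMPT, nicotinamide 150 μM, PRPP 20 μM, ATP 2.5 mM, buffered at pH 7.2 with 50 mM HEPES plus DTT, CHAPS, NaCl and 100 mM MgCl2.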

Where [1] appears, read: Table A, human recombinant NAMPT, NMN formation, 60 min.
Where [2] appears, read: Table A, human recombinant NAMPT, NMN formation, 60 min, read-out: EC50 Human.

Where two headings read alike, the source gives them in different places.

Chain of human NAMPT (P43490 whole entry): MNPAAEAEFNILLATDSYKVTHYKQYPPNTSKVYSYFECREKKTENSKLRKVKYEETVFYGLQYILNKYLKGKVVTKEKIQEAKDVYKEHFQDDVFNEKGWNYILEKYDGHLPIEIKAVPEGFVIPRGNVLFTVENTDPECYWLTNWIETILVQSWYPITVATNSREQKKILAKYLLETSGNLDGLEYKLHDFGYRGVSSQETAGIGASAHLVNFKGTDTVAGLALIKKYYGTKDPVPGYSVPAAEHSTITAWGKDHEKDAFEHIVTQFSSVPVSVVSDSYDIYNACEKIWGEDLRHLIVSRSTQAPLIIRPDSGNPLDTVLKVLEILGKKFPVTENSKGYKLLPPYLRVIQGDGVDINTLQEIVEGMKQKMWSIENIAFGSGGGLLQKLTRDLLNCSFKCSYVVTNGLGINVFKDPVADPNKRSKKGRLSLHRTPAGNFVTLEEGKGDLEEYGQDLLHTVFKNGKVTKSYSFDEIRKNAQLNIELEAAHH

As for `COc1ccc(CNC(=O)N[C@H]2C[C@]3(CCN(C(=O)OC(C)(C)C)C3)C2)cc1` [Compound 81, tert-butyl (2r,4s)-2-(3-(4-methoxybenzyl)ureido)-6-azaspiro[3.4]octane-6-carboxylate], the “AC1.4 Human” value under setting [1] came out at 12.5 µM. Under setting [2], the EC50 came to 37.2 µM.
In the case of `CN1CCC(C(=O)N2CCC(CCCCNC(=O)NCc3ccc(Cl)cc3)CC2)CC1=O` (stereo not drawn) [Compound 302, 1-(4-chlorobenzyl)-3-(4-(1-(1-methyl-2-oxopiperidine-4-carbonyl)piperidin-4-yl)butyl)urea], under setting [1], the “AC1.4 Human” value is 2.0 µM. In addition, the EC50 under setting [2] is 7.9 µM.
Regarding `Cc1ccc(C(=O)NC2CC3(CC(NC(=O)NCc4ccc(Cl)cc4)C3)C2)cn1` (stereo not drawn) [Compound 192, N-(6-(3-(4-chlorobenzyl)ureido)spiro[3.3]heptan-2-yl)-6-methylnicotinamide], the “AC1.4 Human” value under setting [1] is 12.1 µM. For the same molecule, the EC50 under setting [2] amounted to 52.8 µM.
`COc1ccc(CNC(=O)NC2CC3(CC(CC(=O)N(C)Cc4ccccc4)C3)C2)cc1` (stereo not drawn) [Compound 67, N-benzyl-2-(6-(3-(4-methoxybenzyl)ureido)spiro[3.3]heptan-2-yl)-N-methylacetamide]: the EC50 was determined as 35.9 µM. The “AC1.4 Human” value under setting [1] came to 2.3 µM.
As to `O=C(CCCCCNC(=O)NCc1ccc(Cl)cc1)Nc1ccccc1-c1ccccc1` [Compound 273, N-([1,1′-biphenyl]-2-yl)-6-(3-(4-chlorobenzyl)ureido)hexanamide], under setting [1], the “AC1.4 Human” value worked out at 0.9 µM. Besides, the EC50 under setting [2] stood at 0.3 µM.
Consider `COc1ccc(CNC(=O)NCCCCCNC(=O)OC(C)(C)C)cc1` [Compound 36, tert-butyl (5-(3-(4-methoxybenzyl)ureido)pentyl)carbamate], for which the “AC1.4 Human” value under setting [1] came to 9.8 µM. Also, the EC50 under setting [2] is 35.4 µM.
Turning to `COc1ccc(CNC(=O)NC2CC3(C2)CN(C(=O)C(C)(C)c2cccc(C)c2)C3)cc1` [Compound 154, 1-(4-methoxybenzyl)-3-(2-(2-methyl-2-(m-tolyl)propanoyl)-2-azaspiro[3.3]heptan-6-yl)urea], the “AC1.4 Human” value under setting [1] came to 2.1 µM. In addition, the EC50 under setting [2] was found to be 31 µM.
For `COc1ccc(CNC(=O)NC2CC3(C2)CN(C(=O)C2CCCN(C(=O)OC(C)(C)C)C2)C3)cc1` (stereo not drawn) [Compound 136, tert-butyl 3-(6-(3-(4-methoxybenzyl)ureido)-2-azaspiro[3.3]heptane-2-carbonyl)piperidine-1-carboxylate] the same measures were 9.8 µM and 57.7 µM.
Take `Cc1ccc(C(=O)NC(C)C2CC3(CC(NC(=O)NCc4ccc(Cl)cc4)C3)C2)cn1` (stereo not drawn) [Compound 255, N-(1-(6-(3-(4-chlorobenzyl)ureido)spiro[3.3]heptan-2-yl)ethyl)-6-methylnicotinamide]: the “AC1.4 Human” value under setting [1] stood at 2.5 µM. For the same molecule, the EC50 under setting [2] came to 6.5 µM.
Turning to `COC(=O)C1CC2(CC(NC(=O)NCc3ccc(OC)cc3)C2)C1` (stereo not drawn) [Compound 35, Methyl 6-(3-(4-methoxybenzyl)ureido)spiro[3.3]heptane-2-carboxylate], the “AC1.4 Human” value under setting [1] amounted to 15.4 µM. Also, the EC50 under setting [2] amounted to 40.2 µM.
With `COc1ccc(CNC(=O)NC2CC3(C2)CC(C(=O)N2CCN(C(=O)c4ccccc4)CC2)C3)cc1` (stereo not drawn) [Compound 62, 1-(6-(4-benzoylpiperazine-1-carbonyl)spiro[3.3]heptan-2-yl)-3-(4-methoxybenzyl)urea], the “AC1.4 Human” value under setting [1] stood at 1.2 µM. For the same molecule, the EC50 under setting [2] worked out at 23.6 µM.
Consider `COc1ccc(CNC(=O)NC2CC3(C2)CN(C(=O)c2cccc(C(C)C)c2)C3)cc1` [Compound 173, 1-(2-(3-isopropylbenzoyl)-2-azaspiro[3.3]heptan-6-yl)-3-(4-methoxybenzyl)urea], for which, under setting [1], the “AC1.4 Human” value came out at 1.7 µM. Further, the EC50 under setting [2] is 20.2 µM.
Consider `O=C(NCCCCC1CCN(C(=O)c2cccnc2)CC1)NCc1ccc(Cl)cc1` [Compound 289, 1-(4-chlorobenzyl)-3-(4-(1-nicotinoylpiperidin-4-yl)butyl)urea], for which, under setting [1], the “AC1.4 Human” value worked out at 1.1 µM. Besides, the EC50 under setting [2] amounted to 7.7 µM.
For `Cc1ccccc1C(=O)N1CCC(CCCCNC(=O)NCc2cnco2)CC1` [Compound 320, 1-(4-(1-(2-methylbenzoyl)piperidin-4-yl)butyl)-3-(oxazol-5-ylmethyl)urea] the same measures were 0.1 µM and 1.4 µM.
`Cc1cccc(C(=O)NCCCCCNC(=O)NCc2ccc(Cl)cc2)c1` [Compound 276, N-(5-(3-(4-chlorobenzyl)ureido)pentyl)-3-methylbenzamide]: the “AC1.4 Human” value under setting [1] worked out at 1.5 µM. Under setting [2], the EC50 came to 9.5 µM.
Regarding `Cc1ccc(C(=O)N(C)CC2CC3(C2)CC(NC(=O)NCc2ccc(Cl)cc2)C3)cn1` (stereo not drawn) [Compound 248, N-((6-(3-(4-chlorobenzyl)ureido)spiro[3.3]heptan-2-yl)methyl)-N,6-dimethylnicotinamide], the “AC1.4 Human” value under setting [1] is 5.0 µM. Moreover, under setting [2], the EC50 is 6.6 µM.
Regarding `Cc1cc(N2CC[C@]3(C2)C[C@@H](NC(=O)NCc2ccc(Cl)cc2)C3)ccn1` [Compound 171, 1-(4-chlorobenzyl)-3-((2r,4s)-6-(2-methylpyridin-4-yl)-6-azaspiro[3.4]octan-2-yl)urea], the “AC1.4 Human” value under setting [1] was 17.3 µM. The EC50 under setting [2] came out at 24.9 µM.
On to `O=C(NCCCCC1CCN(C(=O)c2ccccn2)CC1)NCc1ccc(Cl)cc1` [Compound 292, 1-(4-chlorobenzyl)-3-(4-(1-picolinoylpiperidin-4-yl)butyl)urea], for which the “AC1.4 Human” value under setting [1] is 0.5 µM. In addition, the EC50 under setting [2] is 2 µM.
In the same order, the values of `COC(=O)C1CCC(S(=O)(=O)N2CC3(CC(NC(=O)NCc4ccc(OC)cc4)C3)C2)CC1` (stereo not drawn) [Compound 131, methyl 4-((6-(3-(4-methoxybenzyl)ureido)-2-azaspiro[3.3]heptan-2-yl)sulfonyl)cyclohexane-1-carboxylate] are 17.6 µM and 48.5 µM.
For `COc1ccc(CNC(=O)NC2CC3(C2)CN(C(=O)c2cccc(C)c2)C3)cc1` [Compound 146, 1-(4-methoxybenzyl)-3-(2-(3-methylbenzoyl)-2-azaspiro[3.3]heptan-6-yl)urea] the same measures were 4.1 µM and 38.7 µM.
On to `COc1ccc(CNC(=O)NC2CC3(C2)CC(C(=O)N2CCC(c4ccccc4)C2)C3)cc1` (stereo not drawn) [Compound 57, 1-(4-methoxybenzyl)-3-(6-(3-phenylpyrrolidine-1-carbonyl)spiro[3.3]heptan-2-yl)urea], for which, under setting [1], the “AC1.4 Human” value was found to be 1.0 µM. In addition, the EC50 under setting [2] came out at 25.8 µM.
In the same order, the values of `COc1ccc(CNC(=O)NC2CC3(CC(CN4Cc5ccccc5C4)C3)C2)cc1` (stereo not drawn) [Compound 129, 1-(6-(isoindolin-2-ylmethyl)spiro[3.3]heptan-2-yl)-3-(4-methoxybenzyl)urea] are 7.3 µM and 30.2 µM.
Take `COc1ccc(CNC(=O)NC2CC3(C2)CC(OCc2cccnc2)C3)cc1` (stereo not drawn) [Compound 351, 1-(4-methoxybenzyl)-3-(6-(pyridin-3-ylmethoxy)spiro[3.3]heptan-2-yl)urea]: under setting [1], the “AC1.4 Human” value worked out at 4.0 µM. Under setting [2], the EC50 was 38.7 µM.
Consider `COc1ccc(CNC(=O)NCCCCCC(=O)N(C)c2ccccc2F)cc1` [Compound 282, N-(2-fluorophenyl)-6-(3-(4-methoxybenzyl)ureido)-N-methylhexanamide], for which the “AC1.4 Human” value under setting [1] came to 0.1 µM. Also, the EC50 under setting [2] was determined as 3.9 µM.
